Patent publication US10131672B2, “Therapeutic or prophylactic agent for biliary diseases” (Toray Industries, Inc., priority 2010, dated 2018)
Where two headings read alike, the source gives them in different places.

Experiments:
sphincter of Oddi [1] = assay: Rabbit model for contraction of sphincter of Oddi (perfusion pressure in sphincter of Oddi); assay type: in vivo
Experimental: The method described in Wei J G et al., World J. Gastroenterol., 6, 102 (2000) was partially modified and used for measurement of a change in the perfusion pressure in sphincter of Oddi. The change in the perfusion pressure reflects the motility of a contractive change of sphincter of Oddi.
Male NZW rabbits (Japan SLC) which had body weights of 2.0 to 2.5 kg upon delivery were fasted from the evening of the day before the experiment. The experiment was carried out under anesthesia with pentobarbital, with artificial ventilation. Each rabbit was immobilized in the supine position and subjected to abdominal incision to expose the periduodenal area and the common bile duct. A small incision was made in the common bile duct, and a cannula was inserted into the common bile duct toward the duodenum side, followed by indwelling its tip in sphincter of Oddi (sphincter ampullae). For biliary excretion, another cannula was inserted into the bile duct toward the gallbladder side and immobilized. From the other end of the cannula whose tip was indwelled in the sphincter of Oddi, physiological saline was continuously injected at a flow rate of 6 mL/hour to allow perfusion in the sphincter of Oddi. By recording the perfusion pressure with a blood pressure monitoring transducer (DX-300, Nihon Kohden Corporation), the contraction reaction of sphincter of Oddi was measured.
To the rabbit, 5% aqueous mannitol solution, which is the vehicle for the Compound 1 solution, was administered via the jugular vein. Further, not less than 30 minutes after the administration of the vehicle, Compound 1 was administered to the same individual at a dose of 0.2 μg/kg via the jugular vein. The administration volume of the vehicle and Compound 1 was 1 mL/kg, and the administration was carried out for 60 seconds.
Thus, in the Compound 1-administered group, the rate of change in the maximum perfusion pressure was lower compared to the vehicle-administered group, and this difference was significant (*p<0.05, paired t-test).

sphincter of Oddi [2] = details: dog, intravenous, cited from earlier work
sphincter of Oddi [3] = assay: Sphincter of Oddi perfusion pressure after intravenous administration to a dog (literature); assay type: in vivo
Experimental: Further, gabexate mesilate reduces the sphincter of Oddi perfusion pressure by 6.9 mmH2O (corresponds to 0.51 mmHg) or 10.6 mmH2O (corresponds to 0.78 mmHg) when it is intravenously administered to a dog at a dose of 1 mg/kg or 3 mg/kg, respectively (Yamasato T. et al., J Smooth Muscle Res., 27, 87 (1991). Since oxapium iodide is usually orally administered at a dose of 30 to 60 mg per adult per day dividedly in 3 times, and 100 mg of gabexate mesilate is usually dissolved in 500 mL of Ringer's solution and the resulting solution is administered by intravenous drip infusion at a rate of not more than 8 mL/minute, the above-described doses are considered to be equivalent to the clinical doses of those drugs.

biliary tract = details: nalbuphine not statistically significant; butorphanol statistically significant; cited from earlier work
sphincter of Oddi [4] = details: animal experiments, high doses; cited from earlier work
sphincter of Oddi [5] = details: literature reports; cited from earlier work

## CN(C(=O)/C=C/c1ccoc1)[C@@H]1CC[C@@]2(O)[C@H]3Cc4ccc(O)c5c4[C@@]2(CCN3CC2CC2)[C@H]1O5.Cl [Compound 1, (−)-17-(cyclopropylmethyl)-3,14β-dihydroxy-4,5α-epoxy-6β-[N-methyl-trans-3-(3-furyl)acrylamido]morphinan hydrochloride]
Sphincter of Oddi [1]; 0.2 μg/kg intravenous to rabbits, on average
  reduction of the actual value of the maximum perfusion pressure: 0.95 mmHg
Sphincter of Oddi [1]; 0.2 μg/kg intravenous, rabbit
  action on contraction of sphincter of Oddi (conclusion in words): has an action to inhibit contraction of sphincter of Oddi
Sphincter of Oddi [1]; 0.2 μg/kg intravenous, 3 minutes after vs 3 minutes before beginning of administration, mean, N=11, vehicle 99.81%, p<0.05
  rate of change in the maximum perfusion pressure (Oddi muscle contraction (Delta %)): 93.32%

## C[N+]1(CC2COC(c3ccccc3)(C3CCCCC3)O2)CCCCC1 (stereo not drawn) [Oxapium iodide]
Sphincter of Oddi [2]; 0.3 mg/kg (Tamasawa Y. et al. 1972)
  reduction of the sphincter of Oddi perfusion pressure: about 10 mmH2O
Sphincter of Oddi [3]; 0.3 mg/kg
  reduction of the sphincter of Oddi perfusion pressure (converted): 0.74 mmHg

## Oc1ccc2c(c1)[C@@]13CCCC[C@@]1(O)[C@@H](C2)N(CC1CCC1)CC3 [butorphanol]
Biliary tract
  increase of the inner pressure of biliary tract: 12%

## CN1CC[C@]2(C)C[C@@H](Cc3ccc(O)cc32)C1 [eptazocine]
Sphincter of Oddi [4]
  contraction of sphincter of Oddi: shows an action to cause contraction of sphincter of Oddi

## CCOC(=O)c1ccc(OC(=O)CCCCCNC(=N)N)cc1 [gabexate mesilate]
Sphincter of Oddi [2]; 1 mg/kg (Yamasato T. et al. 1991)
  reduction of the sphincter of Oddi perfusion pressure: 6.9 mmH2O
Sphincter of Oddi [2]; 3 mg/kg (Yamasato T. et al. 1991)
  reduction of the sphincter of Oddi perfusion pressure: 10.6 mmH2O
Sphincter of Oddi [3]; 1 mg/kg
  reduction of the sphincter of Oddi perfusion pressure (converted): 0.51 mmHg
Sphincter of Oddi [3]; 3 mg/kg
  reduction of the sphincter of Oddi perfusion pressure (converted): 0.78 mmHg

## Oc1ccc2c3c1O[C@H]1[C@@H](O)CC[C@@]4(O)[C@@H](C2)N(CC2CCC2)CC[C@]314 [nalbuphine]
Sphincter of Oddi [5]
  action on contraction of sphincter of Oddi: does not exert any action on contraction of sphincter of Oddi

## C=CCN1CC[C@]23c4c5ccc(O)c4O[C@H]2C(=O)CC[C@@]3(O)[C@H]1C5 [naloxone]
Sphincter of Oddi [5]
  action on contraction of sphincter of Oddi: have an action to inhibit contraction of sphincter of Oddi

## COc1cccc(C2(O)CCCCC2CN(C)C)c1 (stereo not drawn) [tramadol]
Sphincter of Oddi [4]
  contraction of sphincter of Oddi: causes contraction of sphincter of Oddi

## methionine enkephalin
Sphincter of Oddi [5]
  action on contraction of sphincter of Oddi: cause transient contraction of sphincter of Oddi, followed by showing a continuous contraction inhibition action
